Test results from ChEMBL document CHEMBL5705898 (Proc Natl Acad Sci U S A, 2014).
≈ marks a conversion by molar mass, not a printed value.

Key:
[1] = biological target: Adenosine receptor A2a (Homo sapiens) (UniProt P29274); experiment: Inhibition of human A2A receptor at 10 uM relative to control
[2] = biological target: Kappa-type opioid receptor (Homo sapiens, UniProt P41145); experiment: Inhibition of human kappa opioid receptor at 10 uM relative to control
[3] = biological target: Melanocortin receptor 3 (Homo sapiens) (UniProt P41968); experiment: Inhibition of human MC3 receptor at 10 uM relative to control
[4] = biological target: Alpha-2B adrenergic receptor (Homo sapiens) (UniProt P18089); experiment: Inhibition of human alpha 2B receptor at 10 uM relative to control
[5] = biological target: Cannabinoid receptor 1 (Homo sapiens) (UniProt P21554); experiment: Inhibition of human CB1 receptor at 10 uM relative to control
[6] = biological target: Melatonin receptor type 1A (Homo sapiens) (UniProt P48039); experiment: Inhibition of human MT1 at 10 uM relative to control
[7] = biological target: Nitric oxide synthase, inducible (Homo sapiens) (UniProt P35228); experiment: Inhibition of inducible NOS (unknown origin) at 10 uM relative to control
[8] = biological target: Beta-2 adrenergic receptor (Homo sapiens) (UniProt P07550); experiment: Inhibition of human beta 2 receptor at 10 uM relative to control
[9] = biological target: cGMP-dependent 3',5'-cyclic phosphodiesterase (Homo sapiens) (UniProt O00408); experiment: Inhibition of human PDE2A1 at 10 uM relative to control
[10] = biological target: Glutamate receptor ionotropic AMPA (Homo sapiens) (UniProt P48058+P42263+P42262+P42261); experiment: Inhibition of human AMPA receptor at 10 uM relative to control; assay type: protein-complex assay
[11] = biological target: D(3) dopamine receptor (Homo sapiens) (UniProt P35462); experiment: Inhibition of human D3 receptor at 10 uM relative to control
[12] = biological target: 5-hydroxytryptamine receptor 6 (Homo sapiens) (UniProt P50406); experiment: Inhibition of human 5-HT6 receptor at 10 uM relative to control
[13] = Aqueous solubility of compound; assay type: physicochemical; details: buffer
[14] = biological target: 5-hydroxytryptamine receptor 4 (Homo sapiens) (UniProt Q13639); experiment: Inhibition of human 5-HT4e receptor at 10 uM relative to control
[15] = biological target: 5-hydroxytryptamine receptor 7 (Homo sapiens) (UniProt P34969); experiment: Inhibition of human 5-HT7 receptor at 10 uM relative to control
[16] = species: Homo sapiens; experiment: Inhibition of human UT at 10 uM relative to control
[17] = biological target: Cholecystokinin receptor type A (Homo sapiens) (UniProt P32238); experiment: Inhibition of human CCK1 receptor at 10 uM relative to control
[18] = biological target: Platelet-activating factor receptor (Homo sapiens) (UniProt P25105); experiment: Inhibition of human PAF receptor at 10 uM relative to control
[19] = biological target: Vasopressin V1a receptor (Homo sapiens) (UniProt P37288); experiment: Inhibition of human V1a at 10 uM relative to control
[20] = species: Homo sapiens; experiment: Inhibition of SKCa channel (unknown origin) at 10 uM relative to control
[21] = species: Homo sapiens; experiment: Inhibition of GABA-gated Cl- channel (unknown origin) at 10 uM relative to control
[22] = biological target: Histamine H3 receptor (Homo sapiens) (UniProt Q9Y5N1); experiment: Inhibition of human H3 receptor at 10 uM relative to control
[23] = biological target: Endothelin-1 receptor (Homo sapiens) (UniProt P25101); experiment: Inhibition of human ETA receptor at 10 uM relative to control
[24] = biological target: Leukotriene B4 receptor 1 (Homo sapiens) (UniProt Q15722); experiment: Inhibition of human BLT1 at 10 uM relative to control
[25] = biological target: Sodium-dependent dopamine transporter (Homo sapiens) (UniProt Q01959); experiment: Inhibition of human dopamine transporter at 10 uM relative to control
[26] = biological target: MAO-A (Amine oxidase [flavin-containing] A) (Homo sapiens, UniProt P21397); experiment: Inhibition of MAO-A (unknown origin) at 10 uM relative to control
[27] = biological target: Prostacyclin receptor (Homo sapiens) (UniProt P43119); experiment: Inhibition of human IP (PGI2) receptor at 10 uM relative to control
[28] = biological target: Tyrosine-protein kinase Fyn (Homo sapiens) (UniProt P06241); experiment: Inhibition of human Fyn kinase at 10 uM relative to control
Tyrosine-protein kinase Fyn (Homo sapiens), sequence (P06241 2-537 limits assumed): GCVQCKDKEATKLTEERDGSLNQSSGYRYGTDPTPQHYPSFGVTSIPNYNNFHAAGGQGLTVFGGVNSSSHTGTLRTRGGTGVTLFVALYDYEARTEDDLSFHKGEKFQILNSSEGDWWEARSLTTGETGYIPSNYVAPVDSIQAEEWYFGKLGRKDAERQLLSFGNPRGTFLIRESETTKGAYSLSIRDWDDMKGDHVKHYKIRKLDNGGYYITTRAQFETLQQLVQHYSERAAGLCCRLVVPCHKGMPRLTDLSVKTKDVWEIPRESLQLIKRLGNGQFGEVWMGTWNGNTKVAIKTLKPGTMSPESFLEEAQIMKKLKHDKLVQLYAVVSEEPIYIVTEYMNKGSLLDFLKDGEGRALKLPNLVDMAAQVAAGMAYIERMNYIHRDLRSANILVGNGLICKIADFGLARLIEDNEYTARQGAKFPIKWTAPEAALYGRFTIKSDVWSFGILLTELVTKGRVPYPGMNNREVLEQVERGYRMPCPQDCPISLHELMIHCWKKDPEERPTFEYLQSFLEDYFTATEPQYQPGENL

Adenosine receptor A2a (Homo sapiens), sequence (P29274 whole entry): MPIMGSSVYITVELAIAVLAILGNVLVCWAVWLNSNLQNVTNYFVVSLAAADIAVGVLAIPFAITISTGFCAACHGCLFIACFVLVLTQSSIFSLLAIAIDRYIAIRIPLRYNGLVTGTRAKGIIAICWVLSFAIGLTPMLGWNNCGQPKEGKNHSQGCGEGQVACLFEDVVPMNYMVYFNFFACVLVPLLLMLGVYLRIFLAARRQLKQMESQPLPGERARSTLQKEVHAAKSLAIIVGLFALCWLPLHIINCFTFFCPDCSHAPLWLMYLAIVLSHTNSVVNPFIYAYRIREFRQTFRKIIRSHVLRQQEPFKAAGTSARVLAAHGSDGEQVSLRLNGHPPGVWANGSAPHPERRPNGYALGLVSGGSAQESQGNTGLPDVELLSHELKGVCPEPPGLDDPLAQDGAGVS
Kappa-type opioid receptor, sequence (P41145 whole entry): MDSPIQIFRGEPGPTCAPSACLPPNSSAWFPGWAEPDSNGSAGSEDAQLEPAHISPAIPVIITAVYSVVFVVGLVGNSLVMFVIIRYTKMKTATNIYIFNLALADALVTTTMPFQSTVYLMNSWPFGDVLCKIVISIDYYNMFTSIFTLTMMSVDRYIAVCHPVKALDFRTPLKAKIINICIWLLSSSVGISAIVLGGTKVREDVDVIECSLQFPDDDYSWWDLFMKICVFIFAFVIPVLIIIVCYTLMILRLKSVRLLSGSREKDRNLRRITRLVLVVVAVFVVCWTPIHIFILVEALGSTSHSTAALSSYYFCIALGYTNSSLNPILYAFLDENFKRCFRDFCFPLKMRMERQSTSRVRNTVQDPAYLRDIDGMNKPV
Cholecystokinin receptor type A (Homo sapiens), sequence (P32238 whole entry): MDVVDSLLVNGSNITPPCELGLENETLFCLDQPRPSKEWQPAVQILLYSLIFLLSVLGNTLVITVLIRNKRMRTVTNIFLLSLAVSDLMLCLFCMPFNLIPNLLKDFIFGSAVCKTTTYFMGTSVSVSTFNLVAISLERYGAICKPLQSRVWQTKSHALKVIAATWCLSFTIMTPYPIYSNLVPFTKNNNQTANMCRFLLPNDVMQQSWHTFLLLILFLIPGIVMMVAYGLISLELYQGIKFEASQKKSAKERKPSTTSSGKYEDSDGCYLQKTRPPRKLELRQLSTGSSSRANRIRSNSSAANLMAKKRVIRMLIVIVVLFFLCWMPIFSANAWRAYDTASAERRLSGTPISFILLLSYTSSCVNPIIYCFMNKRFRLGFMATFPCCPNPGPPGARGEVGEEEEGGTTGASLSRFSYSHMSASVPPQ
Alpha-2B adrenergic receptor (Homo sapiens), sequence (P18089 whole entry): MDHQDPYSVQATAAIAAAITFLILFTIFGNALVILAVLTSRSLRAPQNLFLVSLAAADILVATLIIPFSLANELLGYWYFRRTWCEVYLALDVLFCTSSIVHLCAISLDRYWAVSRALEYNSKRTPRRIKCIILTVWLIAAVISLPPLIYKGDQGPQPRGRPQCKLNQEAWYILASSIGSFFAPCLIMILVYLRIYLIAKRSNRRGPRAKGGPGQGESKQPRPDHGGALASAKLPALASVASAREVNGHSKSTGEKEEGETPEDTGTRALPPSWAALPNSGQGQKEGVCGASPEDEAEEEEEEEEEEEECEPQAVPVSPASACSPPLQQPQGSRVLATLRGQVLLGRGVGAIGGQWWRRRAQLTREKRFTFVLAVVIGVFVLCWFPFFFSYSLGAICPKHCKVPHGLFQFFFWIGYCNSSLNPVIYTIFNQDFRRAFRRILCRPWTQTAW
Beta-2 adrenergic receptor (Homo sapiens), sequence (P07550 whole entry, looked up): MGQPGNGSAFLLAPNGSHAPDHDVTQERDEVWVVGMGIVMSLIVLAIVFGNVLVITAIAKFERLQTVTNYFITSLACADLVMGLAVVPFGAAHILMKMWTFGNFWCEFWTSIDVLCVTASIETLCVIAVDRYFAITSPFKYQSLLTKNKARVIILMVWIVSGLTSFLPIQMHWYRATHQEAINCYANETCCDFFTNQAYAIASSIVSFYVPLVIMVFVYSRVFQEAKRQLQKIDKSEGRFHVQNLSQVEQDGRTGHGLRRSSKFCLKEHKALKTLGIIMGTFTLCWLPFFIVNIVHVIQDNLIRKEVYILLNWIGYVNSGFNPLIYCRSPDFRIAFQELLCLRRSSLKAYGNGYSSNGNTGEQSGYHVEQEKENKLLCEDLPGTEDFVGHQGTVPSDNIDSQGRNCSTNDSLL
D(3) dopamine receptor (Homo sapiens), sequence (P35462 whole entry): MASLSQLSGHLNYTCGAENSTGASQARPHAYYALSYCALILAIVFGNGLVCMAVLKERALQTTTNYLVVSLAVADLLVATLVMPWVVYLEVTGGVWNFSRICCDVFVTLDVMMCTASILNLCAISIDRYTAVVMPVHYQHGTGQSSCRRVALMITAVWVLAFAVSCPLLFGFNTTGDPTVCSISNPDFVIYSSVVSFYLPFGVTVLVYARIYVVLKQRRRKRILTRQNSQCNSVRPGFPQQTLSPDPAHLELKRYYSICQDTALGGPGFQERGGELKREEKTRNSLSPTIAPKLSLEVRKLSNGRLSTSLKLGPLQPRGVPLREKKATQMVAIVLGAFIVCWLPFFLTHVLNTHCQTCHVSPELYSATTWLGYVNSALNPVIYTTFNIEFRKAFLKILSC
Melanocortin receptor 3 (Homo sapiens), sequence (P41968 whole entry): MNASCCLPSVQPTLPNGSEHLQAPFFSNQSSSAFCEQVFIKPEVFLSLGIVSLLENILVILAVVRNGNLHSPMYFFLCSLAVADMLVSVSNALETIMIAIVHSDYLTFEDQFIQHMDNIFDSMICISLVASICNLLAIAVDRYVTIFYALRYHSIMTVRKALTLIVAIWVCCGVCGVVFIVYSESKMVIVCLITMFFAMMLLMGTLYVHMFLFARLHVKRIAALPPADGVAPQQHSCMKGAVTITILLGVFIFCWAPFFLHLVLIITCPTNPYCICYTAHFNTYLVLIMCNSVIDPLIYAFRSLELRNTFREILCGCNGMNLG
Endothelin-1 receptor (Homo sapiens), sequence (P25101 whole entry): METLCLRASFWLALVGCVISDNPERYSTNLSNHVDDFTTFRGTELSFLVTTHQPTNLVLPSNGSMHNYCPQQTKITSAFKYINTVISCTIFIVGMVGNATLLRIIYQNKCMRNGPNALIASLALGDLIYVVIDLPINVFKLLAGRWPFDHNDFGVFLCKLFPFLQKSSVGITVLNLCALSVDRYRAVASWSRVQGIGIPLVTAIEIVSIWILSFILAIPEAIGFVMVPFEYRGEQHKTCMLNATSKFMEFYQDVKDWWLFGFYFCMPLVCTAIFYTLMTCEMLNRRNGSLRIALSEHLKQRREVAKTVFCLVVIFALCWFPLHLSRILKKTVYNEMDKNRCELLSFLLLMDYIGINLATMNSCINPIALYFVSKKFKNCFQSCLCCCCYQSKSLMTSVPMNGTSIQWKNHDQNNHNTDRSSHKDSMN
5-hydroxytryptamine receptor 7 (Homo sapiens), sequence (P34969 whole entry): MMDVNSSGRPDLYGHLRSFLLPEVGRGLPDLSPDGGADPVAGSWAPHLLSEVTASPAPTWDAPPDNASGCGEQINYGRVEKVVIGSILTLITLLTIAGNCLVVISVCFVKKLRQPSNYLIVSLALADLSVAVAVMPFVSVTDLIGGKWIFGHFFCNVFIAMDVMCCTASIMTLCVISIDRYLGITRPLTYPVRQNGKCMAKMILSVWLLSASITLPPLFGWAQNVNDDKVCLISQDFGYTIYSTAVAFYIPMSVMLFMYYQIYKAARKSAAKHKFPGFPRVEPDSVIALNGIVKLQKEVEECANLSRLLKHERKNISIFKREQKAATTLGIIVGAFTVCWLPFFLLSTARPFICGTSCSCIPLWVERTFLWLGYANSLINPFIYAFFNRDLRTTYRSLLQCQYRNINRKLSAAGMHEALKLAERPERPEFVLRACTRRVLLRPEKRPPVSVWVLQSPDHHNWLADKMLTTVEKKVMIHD
Melatonin receptor type 1A (Homo sapiens), sequence (P48039 whole entry): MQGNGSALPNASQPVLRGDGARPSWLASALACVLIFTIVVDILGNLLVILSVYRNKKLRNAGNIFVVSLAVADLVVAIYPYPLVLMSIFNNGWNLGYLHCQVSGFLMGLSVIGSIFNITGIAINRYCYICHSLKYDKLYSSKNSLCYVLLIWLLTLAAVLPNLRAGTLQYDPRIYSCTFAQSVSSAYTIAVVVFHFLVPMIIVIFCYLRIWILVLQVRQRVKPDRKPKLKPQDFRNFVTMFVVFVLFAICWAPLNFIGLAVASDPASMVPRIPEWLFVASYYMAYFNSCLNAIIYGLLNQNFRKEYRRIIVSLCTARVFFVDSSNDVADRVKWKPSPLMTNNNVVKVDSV
Platelet-activating factor receptor (Homo sapiens), sequence (P25105 whole entry): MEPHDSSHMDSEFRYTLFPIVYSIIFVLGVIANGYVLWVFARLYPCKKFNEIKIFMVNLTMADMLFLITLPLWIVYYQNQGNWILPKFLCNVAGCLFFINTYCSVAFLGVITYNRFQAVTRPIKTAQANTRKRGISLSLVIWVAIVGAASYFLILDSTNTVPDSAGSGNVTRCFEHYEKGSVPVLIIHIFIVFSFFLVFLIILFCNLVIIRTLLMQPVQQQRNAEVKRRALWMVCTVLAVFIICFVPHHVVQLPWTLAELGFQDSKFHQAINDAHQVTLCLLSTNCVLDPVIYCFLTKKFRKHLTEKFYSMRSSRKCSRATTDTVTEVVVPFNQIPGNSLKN

Structure (SMILES): O=C([C@@H](Cc1cccc(C(F)(F)F)c1)NS(=O)(=O)c1cc(F)c2c(c1)CCNC2)N1CCCC1
- inhibition [1]: 18%
- inhibition [2]: 55%
- inhibition [3]: 7%
- inhibition [4]: 79%
- inhibition [5]: 25%
- inhibition [6]: 7%
- inhibition [7]: -7%
- inhibition [8]: -4%
- inhibition [9]: -2%
- inhibition [10]: 2%
- inhibition [11]: 43%
- inhibition [12]: -8%
- solubility [13]: 285 µM (≈ 142 µg/mL)
- inhibition [14]: -4%
- inhibition [15]: 41%
- inhibition [16]: 38%
- inhibition [17]: 8%
- inhibition [18]: 6%
- inhibition [19]: 8%
- inhibition [20]: 5%
- inhibition [21]: 28%
- inhibition [22]: -1%
- inhibition [23]: 10%
- inhibition [24]: -8%
- inhibition [25]: 2%
- inhibition at 10 µM [26]: 6%
- inhibition [27]: -7%
- inhibition [28]: 1%
